Data: ChEMBL document CHEMBL1177872, “Inhibitors of the RET tyrosine kinase based on a 2-(alkylsulfanyl)-4-(3-thienyl)nicotinonitrile scaffold” (Eur J Med Chem, 2010)

Tests used:
TPC1 = assay: Antiproliferative activity against human TPC1 cells expressing RET/PCT1 after 72 hrs by [3H]thymidine incorporation assay
[1] = molecular target: Tyrosine-protein kinase ABL1 (Homo sapiens, UniProt P00519)
Description: Inhibition of human recombinant histidine-tagged ABL (230-517) expressed in Sf9 cells by ELISA

cells = details: Homo sapiens, LS174T
Description: Antiproliferative activity against human RET deficient LS 174T cells after 72 hrs by [3H]thymidine incorporation assay

ARO = assay: Antiproliferative activity against human RET deficient ARO cells after 72 hrs by [3H]thymidine incorporation assay

Tyrosine-protein kinase ABL1, sequence (P00519 whole entry): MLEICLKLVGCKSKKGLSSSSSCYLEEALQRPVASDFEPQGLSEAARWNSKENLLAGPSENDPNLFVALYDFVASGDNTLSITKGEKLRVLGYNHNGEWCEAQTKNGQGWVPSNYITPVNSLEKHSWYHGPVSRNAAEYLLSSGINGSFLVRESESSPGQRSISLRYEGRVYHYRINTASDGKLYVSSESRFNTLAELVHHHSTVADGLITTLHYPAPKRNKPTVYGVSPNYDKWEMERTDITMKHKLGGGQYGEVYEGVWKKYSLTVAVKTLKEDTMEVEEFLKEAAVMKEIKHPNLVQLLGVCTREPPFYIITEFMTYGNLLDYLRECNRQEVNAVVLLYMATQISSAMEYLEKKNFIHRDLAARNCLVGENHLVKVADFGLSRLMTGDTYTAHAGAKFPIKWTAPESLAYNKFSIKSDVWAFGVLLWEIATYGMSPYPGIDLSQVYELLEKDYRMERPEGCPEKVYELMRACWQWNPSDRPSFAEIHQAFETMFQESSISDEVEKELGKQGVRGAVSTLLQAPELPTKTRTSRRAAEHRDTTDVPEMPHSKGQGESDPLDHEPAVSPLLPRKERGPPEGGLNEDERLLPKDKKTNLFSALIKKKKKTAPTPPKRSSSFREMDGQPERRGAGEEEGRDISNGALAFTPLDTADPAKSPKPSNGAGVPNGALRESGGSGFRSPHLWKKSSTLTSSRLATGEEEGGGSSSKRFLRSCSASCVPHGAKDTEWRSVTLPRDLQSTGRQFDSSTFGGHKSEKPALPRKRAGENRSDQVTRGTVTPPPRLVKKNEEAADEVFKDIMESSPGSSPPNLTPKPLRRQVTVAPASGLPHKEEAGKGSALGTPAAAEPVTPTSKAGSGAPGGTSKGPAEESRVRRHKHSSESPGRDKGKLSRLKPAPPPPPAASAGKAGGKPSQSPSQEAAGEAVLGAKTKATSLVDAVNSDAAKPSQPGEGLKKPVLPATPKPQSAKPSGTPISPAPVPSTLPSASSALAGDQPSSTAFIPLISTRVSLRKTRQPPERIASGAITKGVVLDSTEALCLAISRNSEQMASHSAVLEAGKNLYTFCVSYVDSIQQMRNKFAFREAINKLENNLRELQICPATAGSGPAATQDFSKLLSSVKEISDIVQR

SMILES	IC50 [1]	IC50 (cells)	IC50 (TPC1)	IC50 (ARO)
N#Cc1c(N)nc(SCC(=O)c2ccccc2)c(C#N)c1-c1ccsc1	0.29 µM	> 300 µM	> 300 µM	> 300 µM
COc1cc2/c(=N/c3ccc(Br)cc3F)nc[nH]c2cc1OCC1CCN(C)CC1 [VANDETANIB]			0.116 µM	
N#Cc1c(N)nc(SCC(=O)c2ccc(Cl)cc2)c(C#N)c1-c1ccsc1	60 µM	92 µM	28 µM	159 µM

The next lines start with results.

IC50 [1]	IC50 (cells)	SMILES	IC50 (TPC1)	IC50 (ARO)
> 150 µM	> 300 µM	N#Cc1c(SCC(=O)c2ccccc2)nc2c(c1-c1ccsc1)CCCC2	> 300 µM	
72 µM	6.2 µM	N#Cc1c(SCc2ccccc2)nc2c(c1-c1cccs1)CCCC2	17 µM	8.5 µM
74 µM	> 300 µM	N#Cc1c(SCc2ccc(F)cc2)nc2c(c1-c1cccs1)CCCC2	101 µM	> 300 µM
